Assay results reported in patent US11000033B2, “Ketone or oxime compound, and herbicide” (NISSAN CHEMICAL CORPORATION, priority 2014, dated 2021).

Assays:
Type in all cases: in vivo
Avena fatua [1] = experiment: Test Example 5: herbicidal effect by foliage application, plastic box (symbol I); details: 320 g/ha, 3 weeks after application
Procedure, shortened: (§1)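 Effect is rated 3 weeks after a foliar spray of water-diluted emulsion concentrate at a predetermined herbicide amount. Plants had grown 14 days in a 25° C. to 30° C. greenhouse from seed in sterilized diluvial soil.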

corn = experiment: Test Example 5: effect on crop by foliage application, plastic box (symbol c); details: 320 g/ha, 3 weeks after application
Procedure, shortened: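 Greenhouse test at 25° C. to 30° C. Seeds of crops and weeds were spot-sown in boxes of sterilized diluvial soil under roughly 1.5 cm soil cover, then grown for foliage treatment.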

transplanted rice plant = experiment: Test Example 1: effect on crop, application before weed generation in submerged conditions (symbol a); details: application herbicide amount 320 g/ha
Procedure, shortened: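 Alluvial soil pots flooded to 4 cm water, sown with Echinochloa oryzacola, Scirpus juncoides and Monochoria vaginalis, then transplanted with 2.5 leaf stage rice seedlings; pre-emergence application. Greenhouse 25° C. to 30° C.; scored 0–5 by herbicidal ratio 3 weeks after application.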

Lolium multiflorum Lam. = experiment: Test Example 4: herbicidal effect by soil treatment (symbol K); details: application herbicide amount 320 g/ha
Procedure, shortened: (§2)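 Seeds were sown in sterilized diluvial soil, covered with about 1.5 cm of soil, and the soil surface was sprayed with a water-diluted emulsion of the compound at a predetermined rate. Plants grew in a greenhouse at 25° C. to 30° C.; effects were scored visually 3 weeks after application.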

Avena fatua [2] = experiment: Test Example 4: herbicidal effect by soil treatment (symbol I); details: application herbicide amount 320 g/ha
Procedure, shortened: as §2

[3] = tested on: Echinochloa crus-galli var. crus-galli; experiment: Test Example 4: herbicidal effect by soil treatment (symbol H); details: application herbicide amount 320 g/ha
Procedure, shortened: as §2

Setaria viridis = experiment: Test Example 5: herbicidal effect by foliage application, plastic box (symbol G); details: 320 g/ha, 3 weeks after application
Procedure, shortened: as §1

[4] = tested on: Echinochloa oryzacola Vasing.; experiment: Test Example 2: herbicidal activity, application during weed generation in submerged conditions (symbol A); details: Table 23; application herbicide amount 320 g/ha; grade 0-5 by criteria of Test Example 1
Procedure, shortened: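 Scoring of herbicidal effect took place 3 weeks after treatment, using the criteria of the earlier test. Treatment was water-surface application of diluted emulsifiable compound at a set dose. Plants were at one- to two-leaf stage in submerged alluvial soil (4 cm depth), greenhouse 25-30° C.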

Chenopodium album [5] = experiment: Test Example 5: herbicidal effect by foliage application, plastic box (symbol O); details: 320 g/ha, 3 weeks after application
Procedure, shortened: as §1

Leptochloa chinensis = experiment: Test Example 3: herbicidal effect by foliage application, Wagner pot (symbol D); details: application herbicide amount 320 g/ha
Procedure, shortened: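 Foliar spray of a water-diluted emulsion at a predetermined herbicide amount, applied to 14-day-old plants. Seedlings were raised in flooded alluvial soil (0.1–0.5 cm water) at 25–30 °C in a greenhouse. Injury was rated after 3 weeks against fixed criteria.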

Veronica persica [6] = experiment: Test Example 5: herbicidal effect by foliage application, plastic box (symbol R); details: 320 g/ha, 3 weeks after application
Procedure, shortened: as §1

Chenopodium album [7] = experiment: Test Example 4: herbicidal effect by soil treatment (symbol O); details: application herbicide amount 320 g/ha
Procedure, shortened: as §2

Digitaria ciliaris = experiment: Test Example 4: herbicidal effect by soil treatment (symbol F); details: application herbicide amount 320 g/ha
Procedure, shortened: as §2

Veronica persica [8] = experiment: Test Example 4: herbicidal effect by soil treatment (symbol R); details: application herbicide amount 320 g/ha
Procedure, shortened: as §2

Structure (SMILES): CON=C(C)CC1CC(O)=C(c2c(F)cc(C)cc2OC)C1=O (stereo not shown) [6-108]
- I: Avena fatua, herbicidal effect (criteria of Test Example 1) (Avena fatua [1]): 5 (Herbicidal ratio of 90% or more (almost completely withered))
- c: corn, effect on crop (criteria of Test Example 1) (corn): 5 (Herbicidal ratio of 90% or more (almost completely withered))
- Effect grade on crop, a: transplanted rice plant (transplanted rice plant): 5 (Herbicidal ratio of 90% or more (almost completely withered))
- Herbicidal effect grade, K: Lolium multiflorum Lam. (Lolium multiflorum Lam.): 5 (Herbicidal ratio of 90% or more (almost completely withered))
- Herbicidal effect grade, I: Avena fatua (Avena fatua [2]): 3 (Herbicidal ratio of 40% or higher and lower than 70%)
- Herbicidal effect grade, H: Echinochloa crus-galli var. crus-galli [3]: 5 (Herbicidal ratio of 90% or more (almost completely withered))
- G: Setaria viridis, herbicidal effect (criteria of Test Example 1) (Setaria viridis): 5 (Herbicidal ratio of 90% or more (almost completely withered))
- Herbicidal effect grade, A: Echinochloa oryzacola Vasing. [4]: 4 (Herbicidal ratio of 70% or higher and lower than 90%)
- O: Chenopodium album, herbicidal effect (criteria of Test Example 1) (Chenopodium album [5]): 2 (Herbicidal ratio of 20% or higher and lower than 40%)
- herbicidal effect on D (Leptochloa chinensis), grade 0-5 (Leptochloa chinensis): 5 (Herbicidal ratio of 90% or more (almost completely withered))
- R: Veronica persica, herbicidal effect (criteria of Test Example 1) (Veronica persica [6]): 2 (Herbicidal ratio of 20% or higher and lower than 40%)
- Herbicidal effect grade, O: Chenopodium album (Chenopodium album [7]): 5 (Herbicidal ratio of 90% or more (almost completely withered))
- Herbicidal effect grade, F: Digitaria ciliaris (Digitaria ciliaris): 5 (Herbicidal ratio of 90% or more (almost completely withered))
- Herbicidal effect grade, R: Veronica persica (Veronica persica [8]): 3 (Herbicidal ratio of 40% or higher and lower than 70%)

Structure (SMILES): CON=C(C)CC1CC(OS(=O)(=O)N(C)C)=C(c2c(C)cc(-c3ccc(F)cc3)cc2C)C1=O (mixture of isomers) [6-060]
- I: Avena fatua, herbicidal effect (criteria of Test Example 1) (Avena fatua [1]): 5 (Herbicidal ratio of 90% or more (almost completely withered))
- c: corn, effect on crop (criteria of Test Example 1) (corn): 5 (Herbicidal ratio of 90% or more (almost completely withered))
- Effect grade on crop, a: transplanted rice plant (transplanted rice plant): 5 (Herbicidal ratio of 90% or more (almost completely withered))
- K: Lolium multiflorum Lam., herbicidal effect grade (Lolium multiflorum Lam.): 3 (Herbicidal ratio of 40% or higher and lower than 70%)
- I: Avena fatua, herbicidal effect grade (Avena fatua [2]): 0 (Herbicidal ratio of 5% or lower (almost no effect))
- H: Echinochloa crus-galli var. crus-galli, herbicidal effect grade [3]: 4 (Herbicidal ratio of 70% or higher and lower than 90%)
- G: Setaria viridis, herbicidal effect (criteria of Test Example 1) (Setaria viridis): 4 (Herbicidal ratio of 70% or higher and lower than 90%)
- Herbicidal effect grade, A: Echinochloa oryzacola Vasing. [4]: 5 (Herbicidal ratio of 90% or more (almost completely withered))
- O: Chenopodium album, herbicidal effect (criteria of Test Example 1) (Chenopodium album [5]): 4 (Herbicidal ratio of 70% or higher and lower than 90%)
- herbicidal effect on D (Leptochloa chinensis), grade 0-5 (Leptochloa chinensis): 5 (Herbicidal ratio of 90% or more (almost completely withered))
- R: Veronica persica, herbicidal effect (criteria of Test Example 1) (Veronica persica [6]): 4 (Herbicidal ratio of 70% or higher and lower than 90%)
- O: Chenopodium album, herbicidal effect grade (Chenopodium album [7]): 0 (Herbicidal ratio of 5% or lower (almost no effect))
- F: Digitaria ciliaris, herbicidal effect grade (Digitaria ciliaris): 5 (Herbicidal ratio of 90% or more (almost completely withered))
- R: Veronica persica, herbicidal effect grade (Veronica persica [8]): 2 (Herbicidal ratio of 20% or higher and lower than 40%)

Structure (SMILES): CON=C(C)CC1CC(O)=C(c2c(C)cc(-c3ccsc3)cc2C)C1=O (stereo not shown) [6-106]
- I: Avena fatua, herbicidal effect (criteria of Test Example 1) (Avena fatua [1]): 3 (Herbicidal ratio of 40% or higher and lower than 70%)
- c: corn, effect on crop (criteria of Test Example 1) (corn): 5 (Herbicidal ratio of 90% or more (almost completely withered))
- Effect grade on crop, a: transplanted rice plant (transplanted rice plant): 5 (Herbicidal ratio of 90% or more (almost completely withered))
- Herbicidal effect grade, K: Lolium multiflorum Lam. (Lolium multiflorum Lam.): 3 (Herbicidal ratio of 40% or higher and lower than 70%)
- Herbicidal effect grade, I: Avena fatua (Avena fatua [2]): 3 (Herbicidal ratio of 40% or higher and lower than 70%)
- Herbicidal effect grade, H: Echinochloa crus-galli var. crus-galli [3]: 5 (Herbicidal ratio of 90% or more (almost completely withered))
- G: Setaria viridis, herbicidal effect (criteria of Test Example 1) (Setaria viridis): 5 (Herbicidal ratio of 90% or more (almost completely withered))
- Herbicidal effect grade, A: Echinochloa oryzacola Vasing. [4]: 5 (Herbicidal ratio of 90% or more (almost completely withered))
- O: Chenopodium album, herbicidal effect (criteria of Test Example 1) (Chenopodium album [5]): 0 (Herbicidal ratio of 5% or lower (almost no effect))
- herbicidal effect on D (Leptochloa chinensis), grade 0-5 (Leptochloa chinensis): 5 (Herbicidal ratio of 90% or more (almost completely withered))
- R: Veronica persica, herbicidal effect (criteria of Test Example 1) (Veronica persica [6]): 3 (Herbicidal ratio of 40% or higher and lower than 70%)
- Herbicidal effect grade, O: Chenopodium album (Chenopodium album [7]): 0 (Herbicidal ratio of 5% or lower (almost no effect))
- Herbicidal effect grade, F: Digitaria ciliaris (Digitaria ciliaris): 5 (Herbicidal ratio of 90% or more (almost completely withered))
- Herbicidal effect grade, R: Veronica persica (Veronica persica [8]): 0 (Herbicidal ratio of 5% or lower (almost no effect))

Structure (SMILES): CC(=O)CC1CC(O)=C(c2c(C)cc(-c3ccc(C(F)(F)F)cc3)cc2C)C1=O (stereo not shown) [7-005]
- I: Avena fatua, herbicidal effect (criteria of Test Example 1) (Avena fatua [1]): 2 (Herbicidal ratio of 20% or higher and lower than 40%)
- c: corn, effect on crop (criteria of Test Example 1) (corn): 4 (Herbicidal ratio of 70% or higher and lower than 90%)
- Effect grade on crop, a: transplanted rice plant (transplanted rice plant): 1 (Herbicidal ratio of 5% or higher and lower than 20%)
- Herbicidal effect grade, K: Lolium multiflorum Lam. (Lolium multiflorum Lam.): 2 (Herbicidal ratio of 20% or higher and lower than 40%)
- Herbicidal effect grade, I: Avena fatua (Avena fatua [2]): 0 (Herbicidal ratio of 5% or lower (almost no effect))
- Herbicidal effect grade, H: Echinochloa crus-galli var. crus-galli [3]: 0 (Herbicidal ratio of 5% or lower (almost no effect))
- G: Setaria viridis, herbicidal effect (criteria of Test Example 1) (Setaria viridis): 4 (Herbicidal ratio of 70% or higher and lower than 90%)
- Herbicidal effect grade, A: Echinochloa oryzacola Vasing. [4]: 1 (Herbicidal ratio of 5% or higher and lower than 20%)
- O: Chenopodium album, herbicidal effect (criteria of Test Example 1) (Chenopodium album [5]): 3 (Herbicidal ratio of 40% or higher and lower than 70%)
- herbicidal effect on D (Leptochloa chinensis), grade 0-5 (Leptochloa chinensis): 5 (Herbicidal ratio of 90% or more (almost completely withered))
- R: Veronica persica, herbicidal effect (criteria of Test Example 1) (Veronica persica [6]): 0 (Herbicidal ratio of 5% or lower (almost no effect))
- Herbicidal effect grade, O: Chenopodium album (Chenopodium album [7]): 0 (Herbicidal ratio of 5% or lower (almost no effect))
- Herbicidal effect grade, F: Digitaria ciliaris (Digitaria ciliaris): 5 (Herbicidal ratio of 90% or more (almost completely withered))
- Herbicidal effect grade, R: Veronica persica (Veronica persica [8]): 0 (Herbicidal ratio of 5% or lower (almost no effect))

Structure (SMILES): CON=C(C)CC1CC(O)=C(c2c(C)cc(OC)cc2C)C1=O (stereo not shown) [6-055]
- I: Avena fatua, herbicidal effect (criteria of Test Example 1) (Avena fatua [1]): 5 (Herbicidal ratio of 90% or more (almost completely withered))
- c: corn, effect on crop (criteria of Test Example 1) (corn): 5 (Herbicidal ratio of 90% or more (almost completely withered))
- Effect grade on crop, a: transplanted rice plant (transplanted rice plant): 5 (Herbicidal ratio of 90% or more (almost completely withered))
- K: Lolium multiflorum Lam., herbicidal effect grade (Lolium multiflorum Lam.): 5 (Herbicidal ratio of 90% or more (almost completely withered))
- I: Avena fatua, herbicidal effect grade (Avena fatua [2]): 0 (Herbicidal ratio of 5% or lower (almost no effect))
- H: Echinochloa crus-galli var. crus-galli, herbicidal effect grade [3]: 5 (Herbicidal ratio of 90% or more (almost completely withered))
- G: Setaria viridis, herbicidal effect (criteria of Test Example 1) (Setaria viridis): 5 (Herbicidal ratio of 90% or more (almost completely withered))
- Herbicidal effect grade, A: Echinochloa oryzacola Vasing. [4]: 5 (Herbicidal ratio of 90% or more (almost completely withered))
- O: Chenopodium album, herbicidal effect (criteria of Test Example 1) (Chenopodium album [5]): 3 (Herbicidal ratio of 40% or higher and lower than 70%)
- herbicidal effect on D (Leptochloa chinensis), grade 0-5 (Leptochloa chinensis): 5 (Herbicidal ratio of 90% or more (almost completely withered))
- R: Veronica persica, herbicidal effect (criteria of Test Example 1) (Veronica persica [6]): 4 (Herbicidal ratio of 70% or higher and lower than 90%)
- O: Chenopodium album, herbicidal effect grade (Chenopodium album [7]): 0 (Herbicidal ratio of 5% or lower (almost no effect))
- F: Digitaria ciliaris, herbicidal effect grade (Digitaria ciliaris): 5 (Herbicidal ratio of 90% or more (almost completely withered))
- R: Veronica persica, herbicidal effect grade (Veronica persica [8]): 0 (Herbicidal ratio of 5% or lower (almost no effect))
